Test results: patent publication US20120004214A1 (priority 2009, published 2012)

Target: α7-subtype of nicotinic receptors (Rattus norvegicus, UniProt Q05941)
Experiment: biochemical
Assay type: binding

α7-subtype of nicotinic receptors, sequence (Q05941 23-502): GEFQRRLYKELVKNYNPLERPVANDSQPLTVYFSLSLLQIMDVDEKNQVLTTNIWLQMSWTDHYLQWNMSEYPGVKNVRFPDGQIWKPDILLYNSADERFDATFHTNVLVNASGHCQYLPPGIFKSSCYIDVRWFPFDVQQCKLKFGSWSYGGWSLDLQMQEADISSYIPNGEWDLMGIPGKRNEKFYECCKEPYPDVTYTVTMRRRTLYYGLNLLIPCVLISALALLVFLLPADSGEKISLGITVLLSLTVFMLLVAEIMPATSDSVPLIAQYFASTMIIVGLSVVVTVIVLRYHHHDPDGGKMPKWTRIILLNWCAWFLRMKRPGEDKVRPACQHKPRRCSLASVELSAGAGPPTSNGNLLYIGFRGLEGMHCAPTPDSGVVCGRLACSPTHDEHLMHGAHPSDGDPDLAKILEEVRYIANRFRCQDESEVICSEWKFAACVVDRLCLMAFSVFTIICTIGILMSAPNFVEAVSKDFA

## [O-][N+]12CCC(CC1)N(c1ncc(-c3ccc4[nH]ccc4c3)cn1)CC2 [Compound 1, 4-[5-(1H-Indol-5-yl)-pyrimidin-2-yl]-1,4-diaza-bicyclo[3.2.2]nonane 1-oxide]
  IC50: < 0.04 µM
